This passage reports Ki and IC50 results from patent publication US10336701B2, “Pyridin-2-one derivatives of formula (II) useful as EP3 receptor antagonists” (Janssen Pharmaceutica NV, priority 2017, dated 2019).

Bounds are passed on as bounds.

Experiment [1] concerns the target T1, EP3 receptor (Homo sapiens, UniProt P43115).
T1 construct: purchased Millipore HTS092M
T1 sequence (P43115 1-390): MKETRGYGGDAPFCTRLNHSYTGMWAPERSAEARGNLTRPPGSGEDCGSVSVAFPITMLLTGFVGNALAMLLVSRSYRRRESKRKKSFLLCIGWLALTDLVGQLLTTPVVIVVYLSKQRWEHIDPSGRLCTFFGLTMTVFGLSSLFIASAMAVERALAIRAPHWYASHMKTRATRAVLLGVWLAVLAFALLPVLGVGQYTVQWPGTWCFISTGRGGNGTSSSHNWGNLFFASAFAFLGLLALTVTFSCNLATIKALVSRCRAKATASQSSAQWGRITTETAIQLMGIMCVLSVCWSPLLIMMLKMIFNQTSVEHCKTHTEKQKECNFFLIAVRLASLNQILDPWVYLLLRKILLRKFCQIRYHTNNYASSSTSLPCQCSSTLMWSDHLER
Description: [3H]-PGE2 binding assay (EP3 competition binding). Particulars: read-out: [3H]-PGE2 Binding Ki. In short, it runs like this: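 Scintillation-bead competition binding with EP3 membranes (2 μg/well), 2 nM [3H]-PGE2, 0.1% DMSO, in 50 mM Tris, 10 mM MgCl2, 1 mM EDTA, pH 7.4.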

Experiment [2] concerns the target T1, EP3 receptor. Put plainly: CHO cell cAMP assay (forskolin and sulprostone stimulated, HTRF). It counts as cell-based. The settings on record: CHO cells; sulprostone 700 nM (EC80) and FSK 2 μM (EC70), 37° C. for 30 minutes; read-out: CHO_cAMP IC50.

On to `CCn1ncc2c(F)cc(-c3ccc(C(CN4CCS(=O)(=O)CC4)C(C)C)c(=O)[nH]3)cc21` (centres unmarked) [Compound #133, 4-{2-[6-(1-ethyl-4-fluoroindazol-6-yl)-2-oxo-1H-pyridin-3-yl]-3-methylbutyl},4-thiomorpholine-1,1-dione], for which the Ki on EP3 receptor [1] was found to be 12 nM. The IC50 at EP3 receptor [2] amounted to 235 nM.
As to `CCn1ncc2c(F)cc(-c3ccc(C4(F)CCCN(S(=O)(=O)C(C)C)C4)c(=O)[nH]3)cc21` (centres unmarked) [compound 296, 6-(1-ethyl-4-fluoro-1H-indazol-6-yl)-3-(3-fluoro-1-(isopropylsulfonyl)piperidin-3-yl)pyridin-2(1H)-one], on EP3 receptor [1], the Ki was determined as 1 nM. In addition, on EP3 receptor [2], the half-inhibitory concentration (IC50) was 103 nM.
`CC1(c2ccc(-c3ccc4ccccc4c3)[nH]c2=O)CNC(=S)N1` (centres unmarked) [compound 286, 4-[2-hydroxy-6-(naphthalen-2-yl)pyridin-3-yl]-4-methylimidazolidine-2-thione]: at EP3 receptor [1], the Ki was found to be 64 nM. The IC50 on EP3 receptor [2] amounted to 179 nM.
The matching figures for `NC(=O)C(C1=CCCCC1)c1ccc(-c2ccc3ccccc3c2)[nH]c1=O` (centres unmarked) [compound 226, 2-(cyclohex-1-en-1-yl)-2-(6-(naphthalen-2-yl)-2-oxo-1,2-dihydropyridin-3-yl)acetamide]: 186 nM and 4960 nM.
The matching figures for `O=C1NC(=O)[C@]2(CCC[C@H](c3ccc(-c4ccc5ccccc5c4)[nH]c3=O)C2)N1` (racemic) [compound 191, 7-(6-(naphthalen-2-yl)-2-oxo-1,2-dihydropyridin-3-yl)-1,3-diazaspiro[4.5]decane-2,4-dione]: 5 nM and 20 nM.
The matching figures for `CC(C)C(CC(=O)Nc1ncc[nH]1)c1ccc(-c2ccc3cccc(F)c3c2)[nH]c1=O` (centres unmarked) [compound 261, 3-(6-(8-fluoronaphthalen-2-yl)-2-oxo-1,2-dihydropyridin-3-yl)-N-(1H-imidazol-2-yl)-4-methylpentanamide]: 20 nM and 24 nM.
As to `CC(C)C(CC1OC(=O)NC1=O)c1ccc(-c2cc(Cl)c3c(c2)ncn3C)[nH]c1=O` (centres unmarked) [compound 107, 5-(2-(6-(7-chloro-1-methyl-1H-benzo[d]imidazol-5-yl)-2-oxo-1,2-dihydropyridin-3-yl)-3-methylbutyl)oxazolidine-2,4-dione], on EP3 receptor [1], the Ki is greater than 10000 nM. Besides, on EP3 receptor [2], the half-maximal inhibitory concentration (IC50) is greater than 20000 nM.
The matching figures for `CC1=NC(C)(c2ccc(-c3ccc4ccccc4c3)[nH]c2=O)C(=O)N1` (centres unmarked) [compound 223, 3-(2,4-dimethyl-5-oxo-4,5-dihydro-1H-imidazol-4-yl)-6-(naphthalen-2-yl)-1,2-dihydropyridin-2-one]: 496 nM and 3580 nM.
The matching figures for `CCn1ncc2c(F)cc(-c3ccc(C4(O)CCCN(S(=O)(=O)C(C)C)C4)c(=O)[nH]3)cc21` (centres unmarked) [compound 295, 6-(1-ethyl-4-fluoro-1H-indazol-6-yl)-3-(3-hydroxy-1-(isopropylsulfonyl)piperidin-3-yl)pyridin-2(1H)-one]: 2 nM and 79 nM.
Turning to `CCn1ncc2c(F)cc(-c3ccc(C4CCCN(S(=O)(=O)C(C)C)C4)c(=O)[nH]3)cc21` (centres unmarked) [compound 211, 6-(1-ethyl-4-fluoro-1H-indazol-6-yl)-3-(1-(isopropylsulfonyl)piperidin-3-yl)pyridin-2(1H)-one], the inhibitory constant (Ki) on EP3 receptor [1] is 5 nM. At EP3 receptor [2], the IC50 stood at 37 nM.
As to `CC(C)C(CC(N)=O)c1ccc(-c2ccc3ccccc3c2)[nH]c1=O` (centres unmarked) [compound 249, 4-methyl-3-(6-(naphthalen-2-yl)-2-oxo-1,2-dihydropyridin-3-yl)pentanamide], the inhibition constant Ki on EP3 receptor [1] was 5 nM. Also, at EP3 receptor [2], the 50% inhibitory concentration (IC50) is 53 nM.
For `NC(=O)C1(c2ccc(-c3ccc4ccccc4c3)[nH]c2=O)CCCC1` [compound 219, 1-(6-(naphthalen-2-yl)-2-oxo-2,3-dihydropyridin-3-yl)cyclopentanecarboxamide], the Ki at EP3 receptor [1] was found to be 108 nM. Also, the IC50 on EP3 receptor [2] was 4070 nM.
The matching figures for `CC1(c2ccc(-c3ccc4ccccc4c3)[nH]c2=O)CN/C(=N\O)N1` (centres unmarked) [compound 288, 3-[(2E)-2-(hydroxyimino)-4-methylimidazolidin-4-yl]-6-(naphthalen-2-yl)-1,2-dihydropyridin-2-one]: 180 nM and 656 nM.
The matching figures for `O=c1[nH]c(-c2ccc3ccccc3c2)ccc1C1CCc2oncc2C1` (centres unmarked) [compound 187, 6-(naphthalen-2-yl)-3-(4,5,6,7-tetrahydrobenzo[d]isoxazol-5-yl)pyridin-2(1H)-one]: greater than 10000 nM and greater than 20000 nM.
The matching figures for `CC(C)C1(Cc2ccc(-c3ccc4cccc(F)c4c3)[nH]c2=O)NC(=O)NC1=O` (centres unmarked) [compound 263, 5-((6-(8-fluoronaphthalen-2-yl)-2-oxo-1,2-dihydropyridin-3-yl)methyl)-5-isopropylimidazolidine-2,4-dione]: 108 nM and 336 nM.
With `CC1(c2ccc(-c3ccc4ccccc4c3)[nH]c2=O)CNS(=O)(=O)N1` (centres unmarked) [compound 282, 3-(3-methyl-1,1-dioxido-1,2,5-thiadiazolidin-3-yl)-6-(naphthalen-2-yl)pyridin-2(1H)-one], the inhibitory constant (Ki) on EP3 receptor [1] came to 740 nM. For the same compound, at EP3 receptor [2], the half-maximal inhibitory concentration (IC50) was determined as 900 nM.
On to `CC(C)C(C(=O)NS(C)(=O)=O)c1ccc(-c2ccc3ccccc3c2)[nH]c1=O` (centres unmarked) [compound 221, 3-methyl-N-(methylsulfonyl)-2-(6-(naphthalen-2-yl)-2-oxo-1,2-dihydropyridin-3-yl)butanamide], for which the Ki at EP3 receptor [1] is 51 nM. For the same compound, the IC50 on EP3 receptor [2] stood at 243 nM.
The matching figures for `NC(=O)C1(c2ccc(-c3ccc4ccccc4c3)[nH]c2=O)CC=NN1` (centres unmarked) [compound 247, 5-(6-(naphthalen-2-yl)-2-oxo-1,2-dihydropyridin-3-yl)-4,5-dihydro-1H-pyrazole-5-carboxamide]: 771 nM and 2400 nM.
The matching figures for `O=C1NC(=O)/C(=C/C(c2ccc(-c3ccc4cccc(F)c4c3)[nH]c2=O)C2CC2)O1` (centres unmarked) [compound 103, (Z)-5-(2-cyclopropyl-2-(6-(8-fluoronaphthalen-2-yl)-2-oxo-1,2-dihydropyridin-3-yl)ethylidene)oxazolidine-2,4-dione]: 22 nM and 33 nM.
The matching figures for `CCn1ncc2c(F)cc(-c3[nH]c(=O)c(C(/C=C4\OC(=O)NC4=O)C(C)C)cc3C)cc21` (centres unmarked) [compound 111, (Z)-5-(2-(6-(1-ethyl-4-fluoro-1H-indazol-6-yl)-5-methyl-2-oxo-1,2-dihydropyridin-3-yl)-3-methylbutylidene)oxazolidine-2,4-dione]: 162 nM and 585 nM.
Regarding `CO/N=C1\NCC(c2cc(C)c(-c3ccc4cccc(F)c4c3)[nH]c2=O)(C(C)C)N1` (centres unmarked) [compound 293, (E)-6-(8-fluoronaphthalen-2-yl)-3-(4-isopropyl-2-(methoxyimino)imidazolidin-4-yl)-5-methylpyridin-2(1H)-one], on EP3 receptor [1], the Ki was 14 nM. Moreover, the IC50 at EP3 receptor [2] came out at 207 nM.
Consider `CCn1ncc2c(F)cc(-c3ccc(C4CCC5(CCCNC5=O)CC4)c(=O)[nH]3)cc21` (centres unmarked) [compound 196, 9-(6-(1-ethyl-4-fluoro-1H-indazol-6-yl)-2-oxo-1,2-dihydropyridin-3-yl)-2-azaspiro[5.5]undecan-1-one], for which the inhibition constant Ki on EP3 receptor [1] was determined as 8 nM. At EP3 receptor [2], the half-maximal inhibitory concentration (IC50) was 87 nM.
The matching figures for `O=C1NC(=O)C(Cc2ccc(-c3ccc4cccc(F)c4c3)[nH]c2=O)O1` (centres unmarked) [compound 252, 5-((6-(8-fluoronaphthalen-2-yl)-2-oxo-1,2-dihydropyridin-3-yl)methyl)oxazolidine-2,4-dione]: 180 nM and 499 nM.
As to `CC(C)C(CC(=O)NS(=O)(=O)c1cc(Cl)c(Cl)s1)c1ccc(-c2ccc3cccc(F)c3c2)[nH]c1=O` (centres unmarked) [compound 256, N-(4,5-dichlorothiophen-2-ylsulfonyl)-3-(6-(8-fluoronaphthalen-2-yl)-2-oxo-1,2-dihydropyridin-3-yl)-4-methylpentanamide], on EP3 receptor [1], the Ki stood at 164 nM. Also, the half-inhibitory concentration (IC50) on EP3 receptor [2] is 579 nM.
As for `CC1(c2ccc(-c3ccc4ccccc4c3)[nH]c2=O)CN/C(=N\C#N)N1` (centres unmarked) [compound 283], the Ki at EP3 receptor [1] came out at 49 nM. Moreover, the 50% inhibitory concentration (IC50) on EP3 receptor [2] turned out to be 180 nM.
The matching figures for `CCn1ncc2c(F)cc(-c3ccc(C(CC)(CC)c4ccon4)c(=O)[nH]3)cc21` [Compound #29, 6-(1-ethyl-4-fluoro-1H-indazol-6-yl)-3-(3-(isoxazol-3-yl)pentan-3-yl)pyridin-2(1H)-one]: 3 nM and 9 nM.
The matching figures for `CC(C)C1(c2ccc(-c3ccc4cccc(F)c4c3)[nH]c2=O)CNC(NC#N)=N1` (centres unmarked) [compound 291, N-(4-(6-(8-fluoronaphthalen-2-yl)-2-oxo-1,2-dihydropyridin-3-yl)-4-isopropyl-4,5-dihydro-1H-imidazol-2-yl)cyanamide]: 3 nM and 19 nM.
The matching figures for `CCn1ncc2c(F)cc(-c3ccc(C4=CCN(S(=O)(=O)C(C)C)C4)c(=O)[nH]3)cc21` [compound 297, 6-(1-ethyl-4-fluoro-1H-indazol-6-yl)-3-(1-(isopropylsulfonyl)-2,5-dihydro-1H-pyrrol-3-yl)pyridin-2(1H)-one]: 8 nM and 194 nM.
